The record followed here is patent US10189863B2, “5,6-dihydro-4H-benzo[b]thieno-[2,3-d]azepine derivatives” (PULMOCIDE LIMITED, priority 2014, dated 2019).

pIC50: −log10 of the molar value. A value given as a limit tells only on which side of the number the result lay.

Series [1] has as its system RSV A2 strain. Description: Assessment of RSV induced CPE in HEp2 cells (RSV A2 strain). Type of series: cell-based. Particulars: human respiratory syncytial virus, HEp2 cells; for pIC50: HEp-2, 120 h, 1 MOI, 5 days, read-out: RSV A2 CPE IC50; for inhibition at 0.1 µg/mL / inhibition at 0.01 µg/mL: HEp-2; for inhibition at 0.1 µg/mL: Inhibition (%) at 0.1 μg/mL, read-out: RSV A2 CPE % Inhibition; for inhibition at 0.01 µg/mL: Inhibition (%) at 0.01 μg/mL. The procedure, abridged:
(§1)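 HEp2 cells were infected at MOI 1 with RSV A2 or RSV B Washington, with compound added at the same time (0.5% DMSO final). Incubation was 5 days for A2 and 6 days for B, then viability was read by resazurin fluorescence (545/590 nm) after 6 h. IC50, IC75 and IC90 came from concentration-response curves.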

Series [2] concerns RSV B Washington strain. Description: Assessment of RSV induced CPE in HEp2 cells (RSV B Washington strain). Particulars: human respiratory syncytial virus, HEp2 cells; for pIC50: HEp-2, 144 h, 1 MOI, 6 days, read-out: RSV B CPE IC50; for inhibition at 1 µg/mL / inhibition at 0.1 µg/mL: HEp-2; for inhibition at 1 µg/mL: Inhibition (%) at 1 μg/mL, read-out: RSV B CPE % Inhibition; for inhibition at 0.1 µg/mL: Inhibition (%) at 0.1 μg/mL. It is filed as cell-based. An outline of the steps: as §1

The nature of series [3]: Cell viability: resazurin assay. Type of series: cell-based, human. Particulars: human, HEp2 cells. The procedure, abridged: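 HEp2 cells in 5% FBS DMEM exposed to compounds (0.5% DMSO final) for 5 days at 37 °C/5% CO2, then resazurin added for 6 h; fluorescence read at 545/590 nm. Percent viability loss calculated versus 0.5% DMSO vehicle, with increases shown as negative values; CC50 taken from concentration-response curves where appropriate.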
In general terms: Resazurin is reduced to fluorescent resorufin, in cell work by metabolically active cells.

For orientation: pIC50 means the negative decadic logarithm of the IC50, by convention in mol/L. A word on the inhibition: it is the change of the read-out against control, counted positive when it falls. Usually CC50 stands for the concentration that lowers cell viability or growth by half. Low readings indicate harm at low concentration, high ones better tolerance by the cells. Consider `Cc1cc(C(=O)Nc2ccc(C(=O)N3CCc4cc(C(=O)Nc5c(F)cccc5Cl)sc4-c4ccccc43)cc2)c(N2CC3(CCOCC3)C2)nc1C` [Example 46, N-(2-chloro-6-fluorophenyl)-6-(4-(5,6-dimethyl-2-(7-oxa-2-azaspiro[3.5]nonan-2-yl)nicotinamido)benzoyl)-5,6-di-hydro-4H-benzo[b]thieno[2,3-d]azepine-2-carboxamide], for which, in series [1], the pIC50 was 10.16 and the inhibition at 0.1 µg/mL worked out at 100%. For the same compound, in series [2], the pIC50 was 8.15 and the inhibition at 1 µg/mL came to 86%. For the same compound, in series [3], the cytotoxic concentration (CC50) at 5 days is more than 13300 nM.
With `O=C(Nc1c(F)cc(F)cc1F)c1cc2c(s1)-c1ccccc1N(C(=O)c1ccc(NC(=O)c3cc4ccccc4nc3N3CC4(CCOCC4)C3)cc1)CC2` [Example 88, 6-(4-(2-(7-oxa-2-azaspiro[3.5]nonan-2-yl)quinoline-3-carboxamido)benzoyl)-N-(2,4,6-trifluorophenyl)-5,6-di-hydro-4H-benzo[b]thieno[2,3-d]azepine-2-carboxamide], in series [1], the pIC50 was 9.24 and the inhibition at 0.01 µg/mL was 93%. In series [2], the negative-log IC50 (pIC50) is 8.52 and the inhibition at 1 µg/mL came to 93%. In series [3], the 50% cytotoxic concentration (CC50) at 5 days was more than 12900 nM.
As for `Cc1ccc(C(=O)Nc2ccc(C(=O)N3CCc4cc(C(=O)Nc5c(C)cccc5F)sc4-c4ccccc43)cc2)c(N2CC3(CCOCC3)C2)n1` [Example 40, N-(2-fluoro-6-methylphenyl)-6-(4-(6-methyl-2-(7-oxa-2-azaspiro[3.5]nonan-2-yl)nicotinamido)benzoyl)-5,6-dihydro-4H-benzo[b]thieno[2,3-d]azepine-2-carboxamide], in series [1], the negative logarithm of the IC50 (pIC50) was 9.82 and the inhibition at 0.1 µg/mL came to 100%. Besides, in series [2], the pIC50 was 7.38 and the inhibition at 1 µg/mL was found to be 80%. Further, the 50% cytotoxic concentration (CC50) at 5 days in series [3] is more than 14000 nM.
On the same counts, the results for `COc1ccc(C(=O)Nc2ccc(C(=O)N3CCc4cc(C(=O)Nc5ccccc5F)sc4-c4ccccc43)cc2)c(N2CC3(CCOCC3)C2)n1` [Example 3, 6-(4-(6-methoxy-2-(7-oxa-2-azaspiro[3.5]nonan-2-yl)nicotinamido)benzoyl)-N-(2-fluorophenyl)-5,6-dihydro-4H-benzo[b]thieno[2,3-d]azepine-2-carboxamide] are 8.89, 100%, 6.71, 58% and more than 13900 nM.
As to `O=C(Nc1c(F)cccc1Cl)c1cc2c(s1)-c1ccccc1N(C(=O)c1ccc(NC(=O)c3cc4c(nc3N3CC5(CCOCC5)C3)CCC4)cc1F)CC2` [Example 80, 6-(4-(2-(7-oxa-2-azaspiro[3.5]nonan-2-yl)-6,7-dihydro-5H-cyclopenta[b]pyridine-3-carboxamido)-2-fluorobenzoyl)-N-(2-chloro-6-fluorophenyl)-5,6-dihydro-4H-benzo[b]thieno [2,3-d]azepine-2-carboxamide], in series [1], the negative-log IC50 (pIC50) was 8.70 and the inhibition at 0.01 µg/mL turned out to be 91%. Moreover, in series [2], the negative-log IC50 (pIC50) is 8.80 and the inhibition at 1 µg/mL is 93%. This compound also registered a half-maximal cytotoxic concentration (CC50) at 5 days in series [3] of more than 12800 nM.
As to `O=C(Nc1c(F)cccc1F)c1cc2c(s1)-c1ccccc1N(C(=O)c1ccc(NC(=O)c3cc4c(nc3N3CC5(CCOCC5)C3)CCOC4)cc1)CC2` [Example 82, N-(4-(2-((2,6-difluorophenyl)carbamoyl)-5,6-dihydro-4H-benzo[b]thieno[2,3-d]azepine-6-carbonyl)phenyl)-2-(7-oxa-2-azaspiro[3.5]nonan-2-yl)-7,8-dihydro-5H-pyrano[4,3-b] pyridine-3-carboxamide], in series [1], the negative logarithm of the IC50 (pIC50) was 9.11 and testing at 0.01 µg/mL gave an inhibition of 97%. In addition, in series [2], the pIC50 was 8.12 and testing at 0.1 µg/mL gave an inhibition of 100%. The compound also returned a CC50 at 5 days in series [3] of more than 13100 nM.
In the case of `O=C(Nc1ccc(F)cc1F)c1cc2c(s1)-c1ccccc1N(C(=O)c1ccc(NC(=O)c3cc4ccccc4nc3N3CC4(CCOCC4)C3)cc1)CC2` [Example 85, 6-(4-(2-(7-oxa-2-azaspiro[3.5]nonan-2-yl)quinoline-3-carboxamido)benzoyl)-N-(2,4-difluorophenyl)-5,6-dihydro-4H-benzo[b]thieno[2,3-d]azepine-2-carboxamide], in series [1], the pIC50 was 8.46 and the inhibition at 0.1 µg/mL worked out at 95%. Besides, in series [2], the pIC50 was 7.87 and the inhibition at 1 µg/mL came to 91%. This compound also had a CC50 at 5 days in series [3] of more than 13200 nM.
On the same counts, the results for `Cc1ccc(C(=O)Nc2ccc(C(=O)N3CCc4cc(C(=O)Nc5c(F)cccc5F)sc4-c4ccccc43)cc2)c(N2CC3(CCOCC3)C2)n1` [Example 49, N-(2,6-difluorophenyl)-6-(4-(6-methyl-2-(7-oxa-2-aza-spiro[3.5]nonan-2-yl)nicotinamido)benzoyl)-5,6-dihydro-4H-benzo[b]thieno[2,3-d]azepine-2-carboxamide] are 9.89, 100%, 8.89, 100% and more than 13900 nM.
Regarding `C#Cc1cccc(F)c1NC(=O)c1cc2c(s1)-c1ccccc1N(C(=O)c1ccc(NC(=O)c3cc(C)cnc3N3CC4(CCOCC4)C3)cc1)CC2` [Example 37, N-(2-ethynyl-6-fluorophenyl)-6-(4-(5-methyl-2-(7-oxa-2-azaspiro[3.5]nonan-2-yl)nicotinamido)benzoyl)-5,6-dihydro-4H-benzo[b]thieno[2,3-d]azepine-2-carboxamide], in series [1], the pIC50 was 9.82 and at 0.01 µg/mL the inhibition was 100%. Further, in series [2], the pIC50 is 8.14 and the inhibition at 1 µg/mL is 100%. In series [3], the 50% cytotoxic concentration (CC50) at 5 days was more than 13800 nM.
As to `O=C(Nc1c(F)cccc1F)c1cc2c(s1)-c1ccccc1N(C(=O)c1ccc(NC(=O)c3cc4sccc4nc3N3CC4(CCOCC4)C3)cc1)CC2` [Example 13, 6-(4-(5-(7-Oxa-2-azaspiro[3.5]nonan-2-yl)thieno[3,2-b]pyridine-6-carboxamido)benzoyl)-N-(2,6-difluorophenyl)-5,6-dihydro-4H-benzo[b]thieno[2,3-d]azepine-2-carboxamide], in series [1], the pIC50 is 9.35 and testing at 0.01 µg/mL gave an inhibition of 100%. In addition, in series [2], the pIC50 was 9.02 and the inhibition at 1 µg/mL was determined as 100%. Besides, the 50% cytotoxic concentration (CC50) at 5 days in series [3] was more than 13100 nM.
Consider `Cc1cnc(N2CCC3(CC2)COC3)c(C(=O)Nc2ccc(C(=O)N3CCc4cc(C(=O)Nc5c(F)cccc5C(F)(F)F)sc4-c4ccccc43)cc2)c1` [Example 94, N-(2-fluoro-6-(trifluoromethyl)phenyl)-6-(4-(5-methyl-2-(2-oxa-7-azaspiro[3.5]nonan-7-yl)nicotinamido)benzoyl)-5,6-dihydro-4H-benzo[b]thieno[2,3-d]azepine-2-carboxamide], for which, in series [1], the negative logarithm of the IC50 (pIC50) was 8.85 and the inhibition at 0.01 µg/mL was 100%. In addition, in series [2], the negative logarithm of the IC50 (pIC50) is 6.09 and the inhibition at 1 µg/mL stood at 54%. The same compound came in with a CC50 at 5 days in series [3] of more than 13000 nM.
As for `Cc1cnc(N2CC3(CCOCC3)C2)c(C(=O)Nc2ccc(C(=O)N3CCc4cc(C(=O)Nc5c(C)cccc5C#N)sc4-c4ccccc43)cc2)c1` [Example 62, N-(2-cyano-6-methylphenyl)-6-(4-(5-methyl-2-(7-oxa-2-azaspiro[3.5]nonan-2-yl)nicotinamido)benzoyl)-5,6-dihydro-4H-benzo[b]thieno[2,3-d]azepine-2-carboxamide], in series [1], the negative logarithm of the IC50 (pIC50) is 9.89 and at 0.01 µg/mL the inhibition was 89%. In series [2], the pIC50 is 9.05 and the inhibition at 1 µg/mL stood at 100%. In series [3], this compound returned a cytotoxic concentration (CC50) at 5 days of more than 13800 nM.
Regarding `Cc1ccc(C(=O)Nc2ccc(C(=O)N3CCc4cc(C(=O)Nc5c(F)cc(F)cc5F)sc4-c4ccccc43)cc2)c(N2CC3(CCOCC3)C2)n1` [Example 50, 6-(4-(6-methyl-2-(7-oxa-2-azaspiro[3.5]nonan-2-yl)nicotinamido)benzoyl)-N-(2,4,6-trifluorophenyl)-5,6-dihydro-4H-benzo[b]thieno[2,3-d]azepine-2-carboxamide], in series [1], the pIC50 was 9.89 and the inhibition at 0.1 µg/mL amounted to 100%. Moreover, in series [2], the pIC50 was 8.77 and the inhibition at 1 µg/mL was 100%. The cytotoxic concentration (CC50) at 5 days in series [3] is more than 13600 nM.
Take `O=C(Nc1c(F)cccc1F)c1cc2c(s1)-c1ccccc1N(C(=O)c1ccc(NC(=O)c3cccnc3N3CC4(CCOCC4)C3)cc1)CC2` [Example 19, 6-(4-(2-(7-oxa-2-azaspiro[3.5]nonan-2-yl)nicotinamido)benzoyl)-N-(2,6-difluorophenyl)-5,6-dihydro-4H-benzo[b] thieno[2,3-d]azepine-2-carboxamide]: in series [1], the pIC50 is 9.85 and the inhibition at 0.1 µg/mL amounted to 88%. Further, in series [2], the pIC50 is 7.55 and the inhibition at 0.1 µg/mL was found to be 100%. The cytotoxic concentration (CC50) at 5 days in series [3] was more than 14200 nM.
Turning to `C=Cc1cccc(F)c1NC(=O)c1cc2c(s1)-c1ccccc1N(C(=O)c1ccc(NC(=O)c3cc(C)cnc3N3CC4(CCOCC4)C3)cc1)CC2` [Example 36, N-(2-fluoro-6-vinylphenyl)-6-(4-(5-methyl-2-(7-oxa-2-azaspiro[3.5]nonan-2-yl)nicotinamido)benzoyl)-5,6-dihydro-4H-benzo[b]thieno[2,3-d]azepine-2-carboxamide], in series [1], the pIC50 is 9.80 and 0.01 µg/mL produced 95% inhibition. In addition, in series [2], the negative logarithm of the IC50 (pIC50) is 7.87 and the inhibition at 1 µg/mL stood at 99%. In series [3], the 50% cytotoxic concentration (CC50) at 5 days was more than 13700 nM.
